Assay results reported in patent publication US12303521B2, “Methods for treating liver cancers using an orally administered dioxolane nucleotide in combination with an anti-PD1 or anti-PDL1 monoclonal antibody” (MEDIVIR AB, priority 2019, dated 2025).
“Also recorded” adds a separate entry of the source.

Columns and labels:
HepG2 = experiment: IC50 in representative HCC cell line HepG2; assay type: cell-based; details: Homo sapiens
Human PBMC = experiment: IL-2 expression in SEB-stimulated PBMC cultures; assay type: cell-based; details: five days, Luminex
[1] = test system: HT-29 colorectal adenocarcinoma cell line+HDFn+PBMC; experiment: BioMAP StroHT29 system; assay type: cell-based, human; details: stromal IL-6, FIG. 14
Source text: (§1) To recapitulate the complex signaling networks that manifest in the multi-component TME, the BioMAP Oncology systems co-culture human primary immune cells with primary tissue cells in the presence of a specific cancer cell line. These co-cultures are stimulated with submitogenic levels of T cell receptor (TCR) ligands to prime, but not maximally activate T cells and model immune cells recruited to the intra-tumoural microenvironment.
There are two BioMAP Oncology panels that model the interactions between the immune-stromal (fibroblasts) and immune-vascular (endothelial cells) environments in the context of colon cancer (HT-29 CRC cell line), or in the context of non-small lung cancer (NCI-H1299 NSCLC cell line). The interactions between tumour cells, stimulated immune cells (peripheral blood mononuclear cells (PBMC)), and the host stromal network (human neonatal dermal fibroblasts (HDFn)) is captured in the Stro Oncology systems. […]
Adherent cell types are cultured in 96-well plates until confluent, followed by the addition of PBMC. […] Soluble factors from supernatants are quantified using either HTRF® detection, bead-based multiplex immunoassay or capture ELISA. Effects of test agents on cell viability (cytotoxicity) are measured by sulforhodamine B (SRB) for adherent cells (48-hrs), and by alamarBlue® reduction for cells in suspension (42-hrs) at the time points indicated. […]

[2] = test system: vascular or stromal models of HT-29 and peripheral blood mononuclear cells (PBMCs); experiment: BioMAP Oncology CRC panel, system not specified (tumour immune microenvironment model); assay type: cell-based, human; details: 4 concentrations, 48-hrs, vs vehicle control
Source text: as §1
There are two BioMAP Oncology panels that model the interactions between the immune-stromal (fibroblasts) and immune-vascular (endothelial cells) environments in the context of colon cancer (HT-29 CRC cell line), or in the context of non-small lung cancer (NCI-H1299 NSCLC cell line). The interactions between tumour cells, stimulated immune cells (peripheral blood mononuclear cells (PBMC)), and the host stromal network (human neonatal dermal fibroblasts (HDFn)) is captured in the Stro Oncology systems. In parallel, the Vasc systems capture the interactions between tumour cells, activated immune cells and the vascular tissue (human umbilical vein endothelial cells (HUVEC). The biomarkers selected for the Oncology panels inform on activities related to inflammation, immune-function, tissue remodeling and metastasis in the context of a host tumour-microenvironment. Collectively, the Oncology CRC panel and the Oncology NSCLC panel.
Human primary cells in BioMAP systems are used at early passage (passage 4 or earlier) to minimize adaptation to cell culture conditions and preserve physiological signaling responses. All primary cells are pooled from multiple donors (n=3-6), commercially purchased and handled according to the recommendations of the manufacturers. The HT-29 CRC cell line and the NCI-H1299 NSCLC cell line are purchased from American Type Culture Collection (ATCC). Abbreviations are used as follows: human umbilical vein endothelial cells (HUVEC), peripheral blood mononuclear cells (PBMC), human neonatal dermal fibroblasts (HDFn) and T cell receptor (TCR). Systems in both the Oncology CRC and NSCLC panels are stimulated by sub-mitogenic levels of super antigens (SAg) acting via the TCR to recapitulate the recruitment of immune cells to the tumour environment in situ. These stimulation conditions are optimized to activate or prime T cells, but not drive T cell proliferation.
Cell types used in each of the CRC systems are as follows: StroHT29 system [HT-29 colorectal adenocarcinoma cell line+HDFn+PBMC] and VascHT29 system [HT-29 colorectal adenocarcinoma cell line+HUVEC+PBMC].
Adherent cell types are cultured in 96-well plates until confluent, followed by the addition of PBMC. Test agents prepared in either DMSO (small molecules; final concentration ≤0.1%) or PBS (biologics) are added at the specified concentrations 1-hr before stimulation, and remain in culture for 48-hrs. Each plate contains drug controls (e.g., legacy control test agent colchicine), negative controls (e.g., non-stimulated condition) and vehicle controls (e.g., 0.1% DMSO). Direct ELISA is used to measure biomarker levels of cell-associated and cell membrane targets. Soluble factors from supernatants are quantified using either HTRF® detection, bead-based multiplex immunoassay or capture ELISA. Effects of test agents on cell viability (cytotoxicity) are measured by sulforhodamine B (SRB) for adherent cells (48-hrs), and by alamarBlue® reduction for cells in suspension (42-hrs) at the time points indicated. All test agents are tested in standardized formats at 4 concentrations, in triplicate. Colchicine stimulated wells, vehicle control treated wells, and wells without stimulation are included as controls on each plate (n=3-8). Data acceptance criteria are based on plate performance (% CV of controls), and the performance of positive controls across assays with a comparison to historical controls. […]

[3] = Stability in human plasma; assay type: in vitro ADME
SK-OV-3 tumour cells = experiment: PBMC-mediated tumour cell killing; assay type: cell-based, human; details: anti-CD3 stimulated PBMC co-culture, 68 hrs, 5000 nM MIV-818
Method: Whole blood from three healthy donors was used. PBMC were isolated over a density gradient and counted before adding to NucLight Red labelled tumour targets at a defined E:T ratio in the presence of anti-CD3 stimulation. Tumour cell—PBMC co-cultures were incubated with test compounds at eight concentrations. Appropriate controls were included: PBMC alone, tumour cells alone, tumour cells/PBMC in the presence of a reference compound at a single concentration. All test conditions were also plated onto tumour cells in the absence of stimulated PBMC in order to detect direct compound-associated tumour cytotoxicity. Tumour killing was evaluated by counting viable NucLight positive tumour cells over time. In addition, a Caspase 3/7 dye was used to identify apoptotic tumour cells. Cultures were analysed using an IncuCyte ZOOM machine which allows real-time quantitative live cell fluorescent imaging. Co-cultures were imaged over 68 hrs. Each culture condition was established in triplicate. Cell culture supernatants were stored for optional cytokine analysis.
PBMC were isolated from 3 healthy donors and added to co-cultures with anti-CD3 stimulation and NucLight Red labelled SK-OV-3 tumour cells. […] SK-OV-3 apoptotic cell death was monitored in the co-culture system by imaging for 68 hours using the IncuCyte Zoom software.

HT-29 = experiment: Sensitivity of HT-29 cells to MIV-818 alone (IC50); assay type: cell-based; details: Homo sapiens; HT-29, MIV-818 alone
[4] = Stability in rodent blood / plasma; assay type: in vitro ADME
[5] = pulmonary metastatic liver cancer, Wu et al 2017; cited from earlier work

Compound | IC50 (HepG2) | IL-2 expression (Human PBMC) | sIL-6 in the stromal HT-29 system [1] | Collagen III [2] | IP-10 [2] | VCAM-1 [2] | sIFNγ [2] | sIL-6 [2] | sIL-17A [2] | uPAR [2] | stability in human plasma [3] | PBMC-mediated tumour cell killing (apoptotic SK-OV-3 counts) (SK-OV-3 tumour cells) | IC50 (HT-29) | metabolism in rodent blood ([4]; rodent blood) | stability in rodent plasma ([4]; rodent plasma) | adverse event reported [5]
CCC[C@H](C)OC(=O)[C@H](C)NP(=O)(OC[C@H]1OC[C@@H](n2ccc(N)nc2=O)O1)Oc1ccc(Br)cc1 (stereo in doubt) [MIV-818] | ~20 nM | induced | inhibits | decreased | decreased | decreased | increased | decreased | increased | Decreased | stable | enhance | ~20 nM | very quickly metabolized | extremely unstable | 
pembrolizumab: humanized monoclonal IgG4 antibody directed against human cell surface receptor PD-1 |  |  | increase; also recorded: modest enhancement |  |  |  |  |  |  |  |  |  |  |  |  | liver failure
